The record followed here is ChEMBL document CHEMBL2074372, “CHO/hPEPT1 cells overexpressing the human peptide transporter (hPEPT1) as an alternative in vitro model for peptidomimetic drugs” (J Pharm Sci, 1999).

Test [1] deals with T1, Solute carrier family 15 member 1 (Homo sapiens, UniProt P46059).
T1 sequence (P46059 whole entry): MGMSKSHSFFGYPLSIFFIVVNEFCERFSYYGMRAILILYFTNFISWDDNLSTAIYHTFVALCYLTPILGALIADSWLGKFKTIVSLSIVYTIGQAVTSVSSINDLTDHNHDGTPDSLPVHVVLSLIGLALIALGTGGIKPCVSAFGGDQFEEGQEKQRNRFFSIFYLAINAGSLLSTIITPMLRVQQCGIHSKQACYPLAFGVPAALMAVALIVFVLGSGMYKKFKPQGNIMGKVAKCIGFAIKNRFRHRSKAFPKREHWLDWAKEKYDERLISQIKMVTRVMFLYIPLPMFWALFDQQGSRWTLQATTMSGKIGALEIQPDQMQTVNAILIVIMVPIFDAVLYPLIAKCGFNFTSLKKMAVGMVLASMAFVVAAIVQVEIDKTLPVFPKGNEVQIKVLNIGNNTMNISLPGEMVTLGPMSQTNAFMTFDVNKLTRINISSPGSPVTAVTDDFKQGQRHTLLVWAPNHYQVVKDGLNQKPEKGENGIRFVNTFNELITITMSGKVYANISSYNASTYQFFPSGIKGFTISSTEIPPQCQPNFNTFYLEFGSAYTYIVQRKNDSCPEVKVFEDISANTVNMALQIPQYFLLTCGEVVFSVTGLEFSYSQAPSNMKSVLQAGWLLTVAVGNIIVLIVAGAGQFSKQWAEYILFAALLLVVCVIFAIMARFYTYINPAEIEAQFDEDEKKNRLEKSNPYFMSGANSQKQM
Nature of the test: TP_TRANSPORTER: inhibition of Gly-Sar uptake (Gly-Sar: 20 uM) in PEPT1-expressing CHO cells. It counts as functional, cell-based.

The target in test [2] is T2, Solute carrier family 15 member 1 (Homo sapiens) (UniProt P46059).
T2 sequence (whole entry): T1 sequence (P46059 whole entry)
Nature of the test: TP_TRANSPORTER: uptake in PEPT1-expressing CHO cells. The test is classed as functional, cell-based.

`CCOC(=O)[C@H](CCc1ccccc1)N[C@@H](C)C(=O)N1CCC[C@H]1C(=O)O` gave an IC50 in test [1] of 4.5 mM.

For `N[C@@H](C(=O)N[C@@H]1C(=O)N2C(C(=O)O)=C(Cl)CS[C@H]12)c1ccccc1` [CEFACLOR ANHYDROUS], the Activity result in test [2] was “substrate [+]”. Besides, in test [1], the IC50 turned out to be 8.2 mM.

Take `CC1=C(C(=O)O)N2C(=O)[C@@H](NC(=O)[C@H](N)C3=CCC=CC3)[C@H]2SC1` [CEPHRADINE]: in test [2], the Activity entry was “substrate [+]”. The compound also had an IC50 in test [1] of 15.3 mM.

`N[C@@H](Cc1ccc(O)c(O)c1)C(=O)O` [LEVODOPA] gave an IC50 in test [1] of 141 mM.

Turning to `C[C@](N)(Cc1ccc(O)c(O)c1)C(=O)O` [METHYLDOPA], the midpoint of inhibition in test [1], the IC50, lay at 152 mM.

By IC50 is commonly meant the concentration that inhibits the measured activity by half. A lower IC50 goes with greater potency in that assay.
